# Test results from patent publication US20060141496A1, “Method of screening substance interacting with ABC protein” (priority 2003, published 2006).
# Target: T1, human P-glycoprotein (Pgp or MDR 1) expressing membrane (Homo sapiens, UniProt P08183)
# T1 construct: purchased Daiichi Pure Chemicals Co. No. 453228; host or cells: Sf9 insect cell membrane
# Assay: [3H] ADP binding amount by vanadate method, suction cleaning on 96-well glass filter, P-glycoprotein-expressing membrane
# Format: biochemical
# Conditions: substrate 0.05 mM; reaction time 5 minutes; 37° C.; background of control membrane subtracted; FIG. 4
# T1 sequence (P08183 whole entry): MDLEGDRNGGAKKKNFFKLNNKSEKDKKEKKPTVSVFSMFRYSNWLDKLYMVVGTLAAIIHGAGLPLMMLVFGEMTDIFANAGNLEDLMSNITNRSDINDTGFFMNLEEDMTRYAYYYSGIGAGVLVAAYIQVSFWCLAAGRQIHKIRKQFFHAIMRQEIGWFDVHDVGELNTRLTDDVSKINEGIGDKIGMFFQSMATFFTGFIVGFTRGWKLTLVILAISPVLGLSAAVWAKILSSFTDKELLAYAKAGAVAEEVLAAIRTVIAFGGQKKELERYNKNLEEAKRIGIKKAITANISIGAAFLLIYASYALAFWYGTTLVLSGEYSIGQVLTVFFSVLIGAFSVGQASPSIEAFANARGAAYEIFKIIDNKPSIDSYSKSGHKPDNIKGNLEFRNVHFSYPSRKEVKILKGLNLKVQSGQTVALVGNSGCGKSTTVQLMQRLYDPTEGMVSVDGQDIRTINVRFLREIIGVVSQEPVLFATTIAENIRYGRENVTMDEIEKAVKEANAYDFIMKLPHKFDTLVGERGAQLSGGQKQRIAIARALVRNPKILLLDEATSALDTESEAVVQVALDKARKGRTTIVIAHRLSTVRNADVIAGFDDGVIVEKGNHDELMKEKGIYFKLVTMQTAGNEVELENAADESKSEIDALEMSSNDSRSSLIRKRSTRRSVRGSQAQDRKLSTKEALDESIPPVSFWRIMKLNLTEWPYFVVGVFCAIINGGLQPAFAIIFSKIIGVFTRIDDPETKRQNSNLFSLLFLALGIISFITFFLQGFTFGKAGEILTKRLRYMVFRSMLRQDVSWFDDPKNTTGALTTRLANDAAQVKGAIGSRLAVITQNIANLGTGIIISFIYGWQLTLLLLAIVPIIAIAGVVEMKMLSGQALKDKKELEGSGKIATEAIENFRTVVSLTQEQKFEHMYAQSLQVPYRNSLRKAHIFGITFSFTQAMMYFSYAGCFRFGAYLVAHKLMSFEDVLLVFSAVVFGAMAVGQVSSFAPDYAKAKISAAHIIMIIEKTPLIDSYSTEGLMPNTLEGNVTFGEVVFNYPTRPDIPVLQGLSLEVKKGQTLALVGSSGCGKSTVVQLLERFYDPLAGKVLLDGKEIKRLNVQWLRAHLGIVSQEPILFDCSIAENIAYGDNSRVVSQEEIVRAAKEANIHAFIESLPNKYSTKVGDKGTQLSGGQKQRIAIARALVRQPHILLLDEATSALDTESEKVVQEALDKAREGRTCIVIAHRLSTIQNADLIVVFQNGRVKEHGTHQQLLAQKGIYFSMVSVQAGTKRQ
row,Compound,[3H] ADP binding activity compared to P-glycoprotein-expressing membrane without substrate
1,O=C1OC(c2ccc(O)c(S(=O)(=O)O)c2)(c2ccc(O)c(S(=O)(=O)O)c2)c2c(Br)c(Br)c(Br)c(Br)c21 [Bromosulfalein],lowered significantly
2,COc1cccc2c1C(=O)c1c(O)c3c(c(O)c1C2=O)C[C@@](O)(C(C)=O)C[C@@H]3O[C@H]1C[C@H](N)[C@H](O)[C@H](C)O1 [Daunorubicin],significant increase
3,COc1cccc2c1C(=O)c1c(O)c3c(c(O)c1C2=O)C[C@@](O)(C(=O)CO)C[C@@H]3O[C@H]1C[C@H](N)[C@H](O)[C@H](C)O1 [Doxorubicin],significant increase
4,Nc1nc2ncc(CNc3ccc(C(=O)N[C@@H](CCC(=O)O)C(=O)O)cc3)nc2c(=O)[nH]1 [Folate],significant increase
5,CN(Cc1cnc2nc(N)nc(N)c2n1)c1ccc(C(=O)N[C@@H](CCC(=O)O)C(=O)O)cc1 [Methotrexate],significant increase
6,CC[C@]1(O)C[C@@H]2CN(CCc3c([nH]c4ccccc34)[C@@](C(=O)OC)(c3cc4c(cc3OC)N(C)[C@H]3[C@@](O)(C(=O)OC)[C@H](OC(C)=O)[C@]5(CC)C=CCN6CC[C@]43[C@@H]65)C2)C1 [Vinbrastine],significant increase
7,CC[C@]1(O)C[C@H]2CN(CCc3c([nH]c4ccccc34)[C@@](C(=O)OC)(c3cc4c(cc3OC)N(C=O)[C@H]3[C@@](O)(C(=O)OC)[C@H](OC(C)=O)[C@]5(CC)C=CCN6CC[C@]43[C@@H]65)C2)C1 [Vincristine],significant increase

# Target: T2, human MRP2 (Homo sapiens, UniProt Q92887)
# T2 construct: made in house; host or cells: Sf9 insect cells (baculovirus, pFASTBac1)
# Assay: [3H] ADP binding amount by vanadate method, human MRP2-expressing Sf9 membrane
# Format: biochemical
# Conditions: substrate 0.1 mM; reaction time 5 minutes; 37° C.; FIG. 6
# T2 sequence (Q92887 whole entry): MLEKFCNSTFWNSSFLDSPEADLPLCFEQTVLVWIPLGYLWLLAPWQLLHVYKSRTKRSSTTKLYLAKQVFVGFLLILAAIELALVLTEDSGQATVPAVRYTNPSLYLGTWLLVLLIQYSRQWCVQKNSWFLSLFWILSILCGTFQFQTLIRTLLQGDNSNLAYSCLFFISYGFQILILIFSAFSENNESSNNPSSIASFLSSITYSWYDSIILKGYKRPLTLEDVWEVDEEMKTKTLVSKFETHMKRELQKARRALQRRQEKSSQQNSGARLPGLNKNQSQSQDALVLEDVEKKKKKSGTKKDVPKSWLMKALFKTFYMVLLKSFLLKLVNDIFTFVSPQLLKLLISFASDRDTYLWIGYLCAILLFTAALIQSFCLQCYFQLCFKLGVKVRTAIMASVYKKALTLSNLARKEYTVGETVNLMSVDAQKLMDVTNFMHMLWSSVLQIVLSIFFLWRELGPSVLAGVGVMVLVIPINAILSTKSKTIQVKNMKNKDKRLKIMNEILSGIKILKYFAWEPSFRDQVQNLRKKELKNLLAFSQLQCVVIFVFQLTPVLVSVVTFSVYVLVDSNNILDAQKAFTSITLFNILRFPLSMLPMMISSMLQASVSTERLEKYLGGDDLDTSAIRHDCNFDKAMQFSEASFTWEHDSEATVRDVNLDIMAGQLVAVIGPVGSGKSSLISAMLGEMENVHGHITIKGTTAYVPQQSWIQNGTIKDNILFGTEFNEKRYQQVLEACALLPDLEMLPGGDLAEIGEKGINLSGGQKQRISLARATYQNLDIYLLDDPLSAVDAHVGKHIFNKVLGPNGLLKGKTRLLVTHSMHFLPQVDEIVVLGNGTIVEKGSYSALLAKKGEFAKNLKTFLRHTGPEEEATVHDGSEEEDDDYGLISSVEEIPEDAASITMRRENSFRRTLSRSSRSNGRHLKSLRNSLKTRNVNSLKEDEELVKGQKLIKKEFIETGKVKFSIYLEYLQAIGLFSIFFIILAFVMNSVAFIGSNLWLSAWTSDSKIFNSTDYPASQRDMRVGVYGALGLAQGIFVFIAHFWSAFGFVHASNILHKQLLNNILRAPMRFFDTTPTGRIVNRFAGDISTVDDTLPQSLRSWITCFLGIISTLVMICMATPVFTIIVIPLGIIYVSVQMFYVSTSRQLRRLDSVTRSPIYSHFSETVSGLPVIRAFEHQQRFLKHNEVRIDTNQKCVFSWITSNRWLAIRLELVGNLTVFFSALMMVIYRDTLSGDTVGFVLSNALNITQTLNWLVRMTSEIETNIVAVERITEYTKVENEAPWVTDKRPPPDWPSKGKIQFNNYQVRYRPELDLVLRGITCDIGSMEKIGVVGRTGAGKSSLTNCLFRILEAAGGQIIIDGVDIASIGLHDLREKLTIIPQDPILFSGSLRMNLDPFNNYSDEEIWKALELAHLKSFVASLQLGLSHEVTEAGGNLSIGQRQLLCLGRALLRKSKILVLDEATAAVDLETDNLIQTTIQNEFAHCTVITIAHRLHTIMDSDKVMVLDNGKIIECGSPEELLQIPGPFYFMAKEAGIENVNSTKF
row,Compound,[3H] ADP binding activity compared to MRP2-expressing membranes without substrate
1,O=C1OC(c2ccc(O)c(S(=O)(=O)O)c2)(c2ccc(O)c(S(=O)(=O)O)c2)c2c(Br)c(Br)c(Br)c(Br)c21 [Bromosulfalein],increase of significant [^3H] ADP binding activity
2,β-estradiol-17-(β-D-glucuronide) [β-estradiol-17 (β-D-glucuronide)],increase of significant [^3H] ADP binding activity
